Assays:
plasma lipids = assay: Plasma lipids in cholesterol-fed rats after oral PLA2 inhibitor; type: in vivo; details: 100 mg/kg oral gavage, about 8 hours after start of feeding
Procedure: Ultimately, agents that inhibit the absorption of dietary cholesterol should suppress postprandial increases in plasma cholesterol. This was tested with several. PLA2 inhibitors in cholesterol-fed rats. The general protocol consisted of preparing a carboxymethyl cellulose/Tween 20 dispersion of the compound of interest and administering it at a dose of 100 mg/kg by oral gavage to rats previously trained to meal-feed. Immediately following administration of the inhibitor, the rats were fed a lipid-rich meal of chow supplemented with cholesterol, peanut oil, and cholic acid.

porcine pancreatic PLA2 = molecular target: T1, porcine pancreatic PLA2 (Sus scrofa, UniProt P00592); assay: Fluorescence assay of porcine pancreatic PLA2 inhibition in vitro; type: biochemical; details: porcine pancreatic PLA2, in vitro; read-out: In Vitro IC50 (porc. panc. PLA2)
T1 construct: purchased Sigma Chemical Company (St. Louis, Mo.); host or cells: porcine pancreas
Source text: The IC50 values for inhibition of porcine pancreatic PLA2, in vitro, are included for comparison with the in vivo activities.
A sensitive fluorescence method was used to measure the activity of pancreatic phospholipase A2 (PLA2) in vitro. PLA2 hydrolyzes the ester bond linking fatty acids to the sn-2 position in glycerophospholipids. Several types of PLA2 exist, including those isolated from venoms, synovial fluid, platelets, immunoactive cell types and the pancreas. The pancreatic PLA2 was the subject of this experiment because of its fundamental role in promoting lipid absorption in the intestine.
PLA2 activity was detected by the loss of pyrene excimer fluorescence that occurs when (1-pyrenyl)decanoic acid is hydrolysed from the sn-2 position of 1,2-bis-(1-pyrenedecanoyl)sn-glycero-3-phosphocholine ((P10)2 PC) by the action of PLA2. The use of similar pyrene-labeled PC substrates to detect PLA2 activity has been described previously (Radvanyi F., Jordan L., Russo-Marie F., Bon C., "A sensitive and continuous fluorometric assay for phospholipase A2 using pyrene-labeled phospholipids in the presence of serum albumin." Anal. Biochem., 177:103-109 (1989)). The full photophysical basis for the assay is described elsewhere (Birks J. B., "Photophysics of Aromatic Molecules," Wiley Interscience, New York, pp 301-371 (1970)).
In brief, pyrene excimers are formed by the complexation of one pyrene moiety in the ground-state with one pyrene moiety in the excited state to form an excited-state dimer (excimer) which fluoresces at longer wavelengths (475 nm emission maximum) than the wavelength range in which excited-state pyrene monomers fluoresce (370-400 nm). Excimer formation is dependent on the concentration of pyrene moieties. (P10)2 PC emits excimer fluorescence almost exclusively due to the fixed juxtaposition of the pyrene chromophores. The substrate concentration is sufficiently dilute so that excimer formation between the products of PLA2 action, namely lysoPY10PC and the (1-pyrenyl)decanoic acid, is insignificant.
In general, this assay scheme should have been applicable to the study of any type of PLA2. However, since pancreatic PLA2 is unique from the other PLA2 's in that it operates almost exclusively against micellized PC, the PC substrate in this assay was micellized with 1 mM deoxycholic acid. The PC component of the micelles consisted of 5 μM (P10)2 PC substrate diluted with a 99-fold excess (495 μM) of 1-oleyl-2-palmityl phosphatidylcholine (OPPC). The OPPC was inert to PLA2 hydrolysis because it contained ether-linked fatty alkyl chains in place of the ester-linked fatty acyl chains of normal PC. OPPC was included to 1) dilute the micellar (P10)2 PC concentration thereby minimizing intermolecular excimer formation, and 2) preserve the integrity of the micelles against the action of PLA2 since nonspecific micelle disruption could lead to nonlinear kinetics and fluorescence changes independent of lipolysis.
Phospholipase A2 (porcine pancreas), bovine serum albumin (BSA) (fraction V, essentially fatty acid-free) and sodium deoxycholate were obtained from Sigma Chemical Company, (St. Louis, Mo.). 1-Oleyl-2-palmityl-DL-phosphatidylcholine (OPPC) was ordered from Serdary Research Laboratories, Inc. (London, Ont., Canada). 1,2-Bis-(1-pyrenedecanoyl)-sn-glycero-3-phosphatidylcholine ((P10)2 PC) was obtained from Molecular Probes, Inc. (Eugene, Oreg.).
HEPES buffer (SHE) contained 150 mM NaCl, 20 mM HEPES (N-[2-hydroxyethyl]piperazine-N'-[2-ethanesulfonic acid]) and 1 mM EDTA (ethylenediamine tetraacetic acid) at pH 8.0.
1 mM (P10)2 PC in chloroform was prepared by adding 1 mL chloroform to a vial containing 1 mg of (P10)2 PC, as shipped by Molecular Probes. The actual concentration was determined spectrophotometrically by diluting 10 μL of the chloroform solution in 2 mL of ethanol. The absorbance spectrum of the ethanol solution was measured between 380 nm to 280 nm (Beckman DU-64). […]

[1] = system: intestinal lipid absorption; assay: Lymph-fistula rats, effect of PLA2 inhibitors on lymphatic lipid output; type: in vivo, rat; details: FIGS. 10 and 11
Source text: The intestinal lipid absorption pathway was isolated in the rat by inserting an infusion cannula in the proximal duodenum and implanting a second cannula in the mesenteric lymph vessel to intercept the lipoprotein output from the intestine. This lymph-fistula rat model was used to investigate the effect of pancreatic PLA2 inhibition, in situ, on intestinal absorption of infused lipid emulsions. In a typical experiment, cannulae were implanted the day before the experimental infusion. Following surgery, the animals were infused (2.5 mL/hr) with isotonic saline containing dextrose to flush the GI tract and obtain basal levels of lymphatic lipid output. On the day of the experiment, infusion of the dextrose recovery solution was continued for 1 hour to collect a basal lymph fraction. At the start of the next hour, the intake of the duodenal infusion cannula was switched to a lipid emulsion of isotonic saline containing safflower oil (59 mM), cholesterol (5.2 mM), PC (3.3 mM) and taurocholic acid (1.9 mM). One hour lymph fractions were collected until the end of the experiment. The lipid content (mass) of lymph fractions was determined by HPLC with a mass-sensitive, evaporative light-scattering detector. […]

cholesterol absorption = assay: Cholesterol-fed hamster model, plasma and liver cholesterol / cholesterol absorption; type: in vivo; details: FIG. 13
Source text: Neomycin and β-sitosterol (Cytellin) have been used as cholesterol absorption inhibitors to treat hypercholesterolemic patients (Kesaniemi, et al., Serum cholesterol lowering by inhibition of cholesterol absorption, Atherosclerosis, VIII:791-794 (1989)). The mechanisms by which these agents inhibit intestinal cholesterol absorption are unknown. Relatively large doses must be administered (1.5-2 g/day neomycin, 3-50 g/day β-sitosterol) to achieve up to 25% reductions in serum cholesterol levels. The advantages of PLA2 inhibitors over these agents is that the mechanism of cholesterol absorption inhibition is known and sufficiently potent PLA2 inhibitors could be administered in much smaller doses (potentially fewer side effects and better patient compliance) to achieve greater reductions in serum cholesterol levels. For example, in a cholesterol-fed hamster model, administration of 100 mg/kg of the phospholipase A2 inhibitor methyl-[2-(hexadecyloxy)phenyl]methyl ester phosphonic acid (Compound D in FIG. 13) produced reductions in plasma and liver cholesterol levels nearly equivalent to those obtained with a ten-fold higher dose (i.e., 1000 mg/kg) of β-sitosterol. Pancreatic PLA2 inhibitors represent a significant advancement over current agents, the use of which has already proven cholesterol absorption inhibitors to be a beneficial and effective therapy for hypercholesterolemia.

serum cholesterol = details: neomycin 1.5-2 g/day; β-sitosterol 3-50 g/day; cited from earlier work
Caco-2 cells [2] = assay: Caco-2 phospholipase A2-dependent cholesterol absorption, time course; type: cell-based, human; details: for suppression of cholesterol absorption by PC, effect of PLA2: porcine pancreatic PLA2, PC-containing micelles
Caco-2 cells [3] = assay: Caco-2 retinol absorption; type: cell-based, human; details: 10 μM retinol; FIG. 6
Procedure: (§1) Caco-2 cells were used as a tissue culture model of the human intestinal epithelium to compare the effects of phosphatidylcholine and lysophosphatidylcholine on lipid absorption and the subsequent re-esterification and secretion of micelle-derived lipids.
The micelle preparations used in the experiments described for FIG. 4 also contained 10 μM retinol. Retinol was included to determine whether the influence of micellar phospholipid composition on cholesterol absorption extended to other fatty alcohols. Like cholesterol, retinol is a fatty alcohol that is absorbed from the diet by the intestinal epithelium and passed into the circulation by an analogous transport process involving fatty acylation and assembly of the resultant retinyl esters into chylomicrons (Blomhoff R., Green M. H., Berg T., Norum K. R., "Transport and storage of vitamin A." Science, 250:399-404 (1990)).

Caco-2 cells [4] = assay: Caco-2 lipase studies; type: cell-based, human
Procedure: as §1
This was tested with the Caco-2 cells. Taurocholic acid micelles containing phosphatidylcholine, triolein, cholesteryl oleate and cholesterol were placed in the medium covering the apical surface of Caco-2 cell monolayers. Depending on the neutral lipid lipase being studied, either the triolein or cholesteryl oleate was tritium-labeled. The time course of radiolabeled lipid uptake and metabolism was studied in the absence or presence of the neutral lipid lipases, with or without PLA2. The results are in agreement with those presented by Borgstrom and coworkers. […] The results for micellar tri[^3 H]olein uptake indicated a similar but less severe dependence of triglyceride lipase activity on PLA2.

T1 sequence (P00592 23-146): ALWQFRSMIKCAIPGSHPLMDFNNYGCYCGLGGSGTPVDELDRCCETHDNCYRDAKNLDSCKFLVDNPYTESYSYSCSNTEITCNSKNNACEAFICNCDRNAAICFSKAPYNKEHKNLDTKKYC

CCCCCCCCCCCn1nnn(Cc2ccccc2)c1=N [Compound B, 1,4-dihydro-1-(phenylmethyl)-4-undecyl-5H-tetrazol-5-imine]
% Change in plasma lipids vs. Control: HDL Chol. (plasma lipids): 9%
% Change in plasma lipids vs. Control: Total Chol. (plasma lipids): -32%
% Change in plasma lipids vs. Control: non-HDL Chol. (plasma lipids): -44%
IC50 (porcine pancreatic PLA2): 4 µM
lipid absorption in rats [1]: reduced

CC[C@H](CC[C@@H](C)[C@H]1CC[C@H]2[C@@H]3CC=C4C[C@@H](O)CC[C@]4(C)[C@H]3CC[C@]12C)C(C)C [β-sitosterol]
cholesterol absorption in hamsters (cholesterol absorption): reduced
reductions in serum cholesterol levels (serum cholesterol): up to 25%

PLA2: porcine pancreatic phospholipase A2
[3H]oleate-labeled PC synthesis relative to phospholipid-free micelles (Caco-2 cells [2]; 6 hours, micelles with lyso-PC, or PC with PLA2): slight decrease
cell [14C]cholesteryl ester relative to incubations without micellar phospholipid (Caco-2 cells [2]; 12 hours, PC in the presence of PLA2): 60%
cell-associated free [14C]cholesterol relative to level in the absence of PC (Caco-2 cells [2]; PLA2 added to PC-containing micelles): 76%
suppression of cholesterol absorption by PC, effect of PLA2 (Caco-2 cells [2]): partially reversed the inhibitory effects of micellar PC
suppression of cholesterol absorption by PC, effect of PLA2 (Caco-2 cells [2]; listed as pancreatic phospholipase A2): reverses the suppression of cholesterol absorption and metabolism
retinol uptake and esterification (Caco-2 cells [3]): not affected
cellular absorption of fatty acids (Caco-2 cells [4]; FIGS. 7 and 8): dramatic increase
cellular accumulation of tritiated lipid from tri[3H]olein (Caco-2 cells [4]; triglyceride lipase with or without PLA2, FIG. 8): the greatest cellular accumulation of tritiated lipid occurred in the incubation containing both lipases together
entry of micellar [3H]cholesteryl oleate label into cells (Caco-2 cells [4]; with or without carboxyl ester lipase and PLA2, FIG. 7): did not enter the cells unless both carboxyl ester lipase and PLA2 were included in the incubation

— patent US5578639A, “PLA2 inhibitors and their use for inhibition of intestinal cholesterol absorption” (Warner-Lambert Company, priority 1995, dated 1996)
